From patent US20180289678A1, “PHARMACEUTICAL COMPOSITION, PHARMACEUTICAL DOSAGE FORM, PROCESS FOR THEIR PREPARATION, METHODS FOR TREATING AND USES THEREOF” (Boehringer Ingelheim International GmbH, priority 2009, published 2018) come the findings set out here.

A short description of this data set: Particle size distribution measurement by laser diffraction. The following applies: particle size distribution by volume. It is filed as physicochemical. From the text:
The value X90 refers to the 90% value of the volume distribution measured using a laser diffractometer. In other words, for the purposes of the present invention, the X90 value denotes the particle size below which 90% of the quantity of particles is found based on the volume distribution. Analogously the value X50 refers to the 50% value (median) of the volume distribution measured using a laser diffractometer. In other words, for the purposes of the present invention, the X50 value denotes the particle size below which 50% of the quantity of particles is found based on the volume distribution. Analogously the value X10 refers to the 10% value of the volume distribution measured using a laser diffractometer. In other words, for the purposes of the present invention, the X10 value denotes the particle size below which 10% of the quantity of particles is found based on the volume distribution.
Preferably all X90, X50, X10 values hereinbefore and hereinafter are by volume and determined by laser-diffraction method, in particular low angle laser light scattering, i.e. Fraunhofer diffraction. A preferred test is described in the experimental section. The laser diffraction method is sensitive to the volume of a particle and provides a volume-average particle size, which is equivalent to the weight-average particle size if the density is constant.
3. Particle Size Distribution Measurement by Laser Diffraction
Particle size distribution measurement is performed for example via light scattering or laser diffraction technique. To determine the particle size the powder is fed into a laser diffraction spectrometer for example by means of a dispersing unit. The test method is described below in detail:
Equipment: Laser Diffraction Spectrometer Sympatec HELOS Particle Sizer.
Sample Dispersing Unit: Dry disperser RODOS/M
Feed Velocity: 60.00 mm/s
Primary pressure: 2.00 bar
Injector depression: maximize (mbar)2
Reference Measurement: 10 seconds
Trigger Conditions: Start 0.0 seconds after optical concentration 1% valid always
Stop after 5.0 seconds optical concentration 1% or after 30 seconds real time
Optical Concentration: Approximately range 3-12%
Sample Size: Approximately 100 mg
Number of measurements: 2 (duplicate)
The instrument is set up according to the manufacturer's recommendation and using the manufacturer provided software. The sample container is thoroughly mixed and tumbled prior to removing a portion of the sample to ensure that a representative sample is tested. Duplicate samples are prepared by using a spatula to transfer approximately 100 mg of a sample into the ASPIROS glass vials and cap the vials. The capped cials are placed into the feeder.

Compound `OC[C@H]1O[C@@H](c2ccc(Cl)c(Cc3ccc(O[C@H]4CCOC4)cc3)c2)[C@H](O)[C@@H](O)[C@@H]1O` [Active substance Batch 1] showed an X10 of 1.8 μm, an X50 of 18.9 μm and an X90 of 45.3 μm.

For `OC[C@H]1O[C@@H](c2ccc(Cl)c(Cc3ccc(O[C@H]4CCOC4)cc3)c2)[C@H](O)[C@@H](O)[C@@H]1O` [Active substance Batch 2], the X10 was determined as 1.7 μm, the X50 was determined as 12.1 μm and the X90 was found to be 25.9 μm.
